Results from patent US20220169628A1 (University of Florida Research Foundation, Incorporated, priority 2019, published 2022).

Legend:
RS4;11 cells = test: Cell viability assay, MTS, 48 h, RS4;11; format: cell-based; settings: Homo sapiens, RS4-11, 48 h, 48 hours, read-out: IC50 (48 hours) RS4;11
Experimental: (§1) Acute lymphoblastic leukemia cells (MOLT-4 and RS4; 11) or small cell lung cancer (NCI-H146 or simply H146) were incubated with increasing concentrations of Bcl-xL degraders for 48 h. Cell viability was measured by tetrazolium-based MTS assay.

MOLT-4 cells = test: Cell viability assay, MTS, 48 h, MOLT-4; format: cell-based; settings: Homo sapiens, MOLT-4, 48 h, 48 hours, read-out: IC50 (48 hours) MOLT-4
Experimental: as §1

In the case of `Cc1ncsc1-c1ccc([C@H](C)NC(=O)[C@@H]2C[C@@H](O)CN2C(=O)[C@@H](NC(=O)CCCCCC(=O)N2CCC(c3ccc(Cl)cc3)=C(CN3CCN(c4ccc(C(=O)NS(=O)(=O)c5ccc(N[C@H](CCN6CCOCC6)CSc6ccccc6)c(S(=O)(=O)C(F)(F)F)c5)cc4)CC3)C2)C(C)(C)C)cc1` [compound 80, (2S,4R)-1-((S)-2-(7-(4-(4-chlorophenyl)-5-((4-(4-(((4-(((R)-4-morpholino-1-(phenylthio)butan-2-yl)amino)-3-((trifluoromethyl)sulfonyl)phenyl)sulfonyl)carbamoyl)phenyl)piperazin-1-yl)methyl)-3,6-dihydropyridin-1(2H)-yl)-7-oxoheptanamido)-3,3-dimethylbutanoyl)-4-hydroxy-N—((S)-1-(4-(4-methylthiazol-5-yl)phenyl)ethyl)pyrrolidine-2-carboxamide], the IC50 (RS4;11 cells) is reported as > 500 nM and the IC50 (MOLT-4 cells) is reported as > 500 nM.

In the case of `Cc1ncsc1-c1ccc([C@H](C)NC(=O)[C@@H]2C[C@@H](O)CN2C(=O)[C@@H](NC(=O)CCCCCCCCC(=O)N2CCC(c3ccc(Cl)cc3)=C(CN3CCN(c4ccc(C(=O)NS(=O)(=O)c5ccc(N[C@H](CCN6CCOCC6)CSc6ccccc6)c(S(=O)(=O)C(F)(F)F)c5)cc4)CC3)C2)C(C)(C)C)cc1` [compound 83, (2S,4R)-1-((S)-2-(10-(4-(4-chlorophenyl)-5-((4-(4-(((4-(((R)-4-morpholino-1-(phenylthio)butan-2-yl)amino)-3-((trifluoromethyl)sulfonyl)phenyl)sulfonyl)carbamoyl)phenyl)piperazin-1-yl)methyl)-3,6-dihydropyridin-1(2H)-yl)-10-oxodecanamido)-3,3-dimethylbutanoyl)-4-hydroxy-N—((S)-1-(4-(4-methylthiazol-5-yl)phenyl)ethyl)pyrrolidine-2-carboxamide], the IC50 (RS4;11 cells) is reported as 150 to 500 nM and the IC50 (MOLT-4 cells) is reported as 50 to 150 nM.

`Cc1ncsc1-c1ccc([C@H](C)NC(=O)[C@@H]2C[C@@H](O)CN2C(=O)[C@@H](NC(=O)CCCCCCCCCC(=O)N2CCC(c3ccc(Cl)cc3)=C(CN3CCN(c4ccc(C(=O)NS(=O)(=O)c5ccc(N[C@H](CCN6CCOCC6)CSc6ccccc6)c(S(=O)(=O)C(F)(F)F)c5)cc4)CC3)C2)C(C)(C)C)cc1` [compound 84, (2S,4R)-1-((S)-2-(11-(4-(4-chlorophenyl)-5-((4-(4-(((4-(((R)-4-morpholino-1-(phenylthio)butan-2-yl)amino)-3-((trifluoromethyl)sulfonyl)phenyl)sulfonyl)carbamoyl)phenyl)piperazin-1-yl)methyl)-3,6-dihydropyridin-1(2H)-yl)-11-oxoundecanamido)-3,3-dimethylbutanoyl)-4-hydroxy-N—((S)-1-(4-(4-methylthiazol-5-yl)phenyl)ethyl)pyrrolidine-2-carboxamide] gave an IC50 (RS4;11 cells) of 150 to 500 nM and an IC50 (MOLT-4 cells) of 150 to 500 nM.

In the case of `Cc1ncsc1-c1ccc([C@H](C)NC(=O)[C@@H]2C[C@@H](O)CN2C(=O)[C@@H](NC(=O)CCCCCCCCCCC(=O)N2CCC(c3ccc(Cl)cc3)=C(CN3CCN(c4ccc(C(=O)NS(=O)(=O)c5ccc(N[C@H](CCN6CCOCC6)CSc6ccccc6)c(S(=O)(=O)C(F)(F)F)c5)cc4)CC3)C2)C(C)(C)C)cc1` [compound 85, (2S,4R)-1-((S)-2-(12-(4-(4-chlorophenyl)-5-((4-(4-(((4-(((R)-4-morpholino-1-(phenylthio)butan-2-yl)amino)-3-((trifluoromethyl)sulfonyl)phenyl)sulfonyl)carbamoyl)phenyl)piperazin-1-yl)methyl)-3,6-dihydropyridin-1(2H)-yl)-12-oxododecanamido)-3,3-dimethylbutanoyl)-4-hydroxy-N—((S)-1-(4-(4-methylthiazol-5-yl)phenyl)ethyl)pyrrolidine-2-carboxamide], the IC50 (RS4;11 cells) is reported as 50 to 150 nM and the IC50 (MOLT-4 cells) is reported as 50 to 150 nM.

With `Cc1ncsc1-c1ccc([C@H](C)NC(=O)[C@@H]2C[C@@H](O)CN2C(=O)[C@@H](NC(=O)COCCOCCOCCOC(=O)N2CCC(c3ccc(Cl)cc3)=C(CN3CCN(c4ccc(C(=O)NS(=O)(=O)c5ccc(N[C@H](CCN6CCOCC6)CSc6ccccc6)c(S(=O)(=O)C(F)(F)F)c5)cc4)CC3)C2)C(C)(C)C)cc1` [compound 86, (S)-13-((2S,4R)-4-hydroxy-2-(((S)-1-(4-(4-methylthiazol-5-yl)phenyl)ethyl)carbamoyl)pyrrolidine-1-carbonyl)-14,14-dimethyl-11-oxo-3,6,9-trioxa-12-azapentadecyl 4-(4-chlorophenyl)-5-((4-(4-(((4-(((R)-4-morpholino-1-(phenylthio)butan-2-yl)amino)-3-((trifluoromethyl)sulfonyl)phenyl)sulfonyl)carbamoyl)phenyl)piperazin-1-yl)methyl)-3,6-dihydropyridine-1(2H)-carboxylate] the IC50 (RS4;11 cells) was > 500 nM and the IC50 (MOLT-4 cells) was > 500 nM.

For `Cc1ncsc1-c1ccc([C@H](C)NC(=O)[C@@H]2C[C@@H](O)CN2C(=O)[C@@H](NC(=O)COCCOCCOCCOCCOC(=O)N2CCC(c3ccc(Cl)cc3)=C(CN3CCN(c4ccc(C(=O)NS(=O)(=O)c5ccc(N[C@H](CCN6CCOCC6)CSc6ccccc6)c(S(=O)(=O)C(F)(F)F)c5)cc4)CC3)C2)C(C)(C)C)cc1` [compound 87, (S)-16-((2S,4R)-4-hydroxy-2-(((S)-1-(4-(4-methylthiazol-5-yl)phenyl)ethyl)carbamoyl)pyrrolidine-1-carbonyl)-17,17-dimethyl-14-oxo-3,6,9,12-tetraoxa-15-azaoctadecyl 4-(4-chlorophenyl)-5-((4-(4-(((4-(((R)-4-morpholino-1-(phenylthio)butan-2-yl)amino)-3-((trifluoromethyl)sulfonyl)phenyl)sulfonyl)carbamoyl)phenyl)piperazin-1-yl)methyl)-3,6-dihydropyridine-1(2H)-carboxylate], the IC50 (RS4;11 cells) was > 500 nM and the IC50 (MOLT-4 cells) was > 500 nM.

With `Cc1ncsc1-c1ccc([C@@H](C)NC(=O)[C@@H]2C[C@@H](O)CN2C(=O)[C@@H](NC(=O)CCCCCCCCCN2CCC(c3ccc(Cl)cc3)=C(CN3CCN(c4ccc(C(=O)NS(=O)(=O)c5ccc(N[C@H](CCN6CCOCC6)CSc6ccccc6)c(S(=O)(=O)C(F)(F)F)c5)cc4)CC3)C2)C(C)(C)C)cc1` [compound 88, (2S,4R)-1-((S)-2-(10-(4-(4-chlorophenyl)-5-((4-(4-(((4-(((R)-4-morpholino-1-(phenylthio)butan-2-yl)amino)-3-((trifluoromethyl)sulfonyl)phenyl)sulfonyl)carbamoyl)phenyl)piperazin-1-yl)methyl)-3,6-dihydropyridin-1(2H)-yl)decanamido)-3,3-dimethylbutanoyl)-4-hydroxy-N—((R)-1-(4-(4-methylthiazol-5-yl)phenyl)ethyl)pyrrolidine-2-carboxamide] the IC50 (RS4;11 cells) was > 500 nM and the IC50 (MOLT-4 cells) was 150 to 500 nM.

For `Cc1ncsc1-c1ccc([C@H](C)NC(=O)[C@@H]2C[C@@H](O)CN2C(=O)[C@@H](NC(=O)COCCOCCOCCOCC(=O)NCC2(C)CCC(c3ccc(Cl)cc3)=C(CN3CCN(c4ccc(C(=O)NS(=O)(=O)c5ccc(N[C@H](CCN6CCOCC6)CSc6ccccc6)c(S(=O)(=O)C(F)(F)F)c5)cc4)CC3)C2)C(C)(C)C)cc1` (stereo partly drawn) [degrader #9, N1-((4′-chloro-4-methyl-6-((4-(4-(((4-(((R)-4-morpholino-1-(phenylthio)butan-2-yl)amino)-3-((trifluoromethyl)sulfonyl)phenyl)sulfonyl)carbamoyl)phenyl)piperazin-1-yl)methyl)-2,3,4,5-tetrahydro-[1,1′-biphenyl]-4-yl)methyl)-N14-((S)-1-((2S,4R)-4-hydroxy-2-(((S)-1-(4-(4-methylthiazol-5-yl)phenyl)ethyl)carbamoyl)pyrrolidin-1-yl)-3,3-dimethyl-1-oxobutan-2-yl)-3,6,9,12-tetraoxatetradecanediamide], the IC50 (RS4;11 cells) was 150 to 500 nM and the IC50 (MOLT-4 cells) was > 500 nM.

With `Cc1ncsc1-c1ccc([C@H](C)NC(=O)[C@@H]2C[C@@H](O)CN2C(=O)[C@@H](NC(=O)COCCOCCOCCOCCOCC(=O)NCC2(C)CCC(c3ccc(Cl)cc3)=C(CN3CCN(c4ccc(C(=O)NS(=O)(=O)c5ccc(N[C@H](CCN6CCOCC6)CSc6ccccc6)c(S(=O)(=O)C(F)(F)F)c5)cc4)CC3)C2)C(C)(C)C)cc1` (stereo partly drawn) [degrader #10, N1-((4′-chloro-4-methyl-6-((4-(4-(((4-(((R)-4-morpholino-1-(phenylthio)butan-2-yl)amino)-3-((trifluoromethyl)sulfonyl)phenyl)sulfonyl)carbamoyl)phenyl)piperazin-1-yl)methyl)-2,3,4,5-tetrahydro-[1,1′-biphenyl]-4-yl)methyl)-N17-((S)-1-((2S,4R)-4-hydroxy-2-(((S)-1-(4-(4-methylthiazol-5-yl)phenyl)ethyl)carbamoyl)pyrrolidin-1-yl)-3,3-dimethyl-1-oxobutan-2-yl)-3,6,9,12,15-pentaoxaheptadecanediamide] the IC50 (RS4;11 cells) was > 500 nM and the IC50 (MOLT-4 cells) was > 500 nM.

With `Cc1ncsc1-c1ccc([C@H](C)NC(=O)[C@@H]2C[C@@H](O)CN2C(=O)[C@@H](NC(=O)CCCCC#CC#CC2(C)CCC(c3ccc(Cl)cc3)=C(CN3CCN(c4ccc(C(=O)NS(=O)(=O)c5ccc(N[C@H](CCN6CCOCC6)CSc6ccccc6)c(S(=O)(=O)C(F)(F)F)c5)cc4)CC3)C2)C(C)(C)C)cc1` (stereo partly drawn) [degrader #11, (2S,4R)-1-((2S)-2-(9-(4′-chloro-4-methyl-6-((4-(4-(((4-(((R)-4-morpholino-1-(phenylthio)butan-2-yl)amino)-3-((trifluoromethyl)sulfonyl)phenyl)sulfonyl)carbamoyl)phenyl)piperazin-1-yl)methyl)-2,3,4,5-tetrahydro-[1,1′-biphenyl]-4-yl)nona-6,8-diynamido)-3,3-dimethylbutanoyl)-4-hydroxy-N—((S)-1-(4-(4-methylthiazol-5-yl)phenyl)ethyl)pyrrolidine-2-carboxamide] the IC50 (RS4;11 cells) was > 500 nM and the IC50 (MOLT-4 cells) was > 500 nM.
